The experiment addresses T1, human S1P1 receptor (Homo sapiens, UniProt P21453).
T1 construct: expressed in transfected cells; membranes used
Description: GTP γ35S binding assay for S1P1 activity. Conditions: membranes of cells stably expressing the S1P1 receptor, test compounds 0.08 to 5,000 nM, 30 min at 25° C. Type of experiment: biochemical. The protocol: Compounds were synthesized and tested for S1P1 activity using the GTP γ^35S binding assay. These compounds may be assessed for their ability to activate or block activation of the human S1P1 receptor in cells stably expressing the S1P1 receptor.
GTP γ^35S binding was measured in the medium containing (mM) HEPES 25, pH 7.4, MgCl2 10, NaCl 100, dithitothreitol 0.5, digitonin 0.003%, 0.2 nM GTP γ^35S, and 5 μg membrane protein in a volume of 150 μl. Test compounds were included in the concentration range from 0.08 to 5,000 nM unless indicated otherwise. Membranes were incubated with 100 μM 5′-adenylylimmidodiphosphate for 30 min, and subsequently with 10 μM GDP for 10 min on ice. Drug solutions and membrane were mixed, and then reactions were initiated by adding GTP γ^35S and continued for 30 min at 25° C. Reaction mixtures were filtered over Whatman GF/B filters under vacuum, and washed three times with 3 mL of ice-cold buffer (HEPES 25, pH7.4, MgCl2 10 and NaCl 100). Filters were dried and mixed with scintillant, and counted for ^35S activity using a β-counter. Agonist-induced GTP γ^35S binding was obtained by subtracting that in the absence of agonist. Binding data were analyzed using a non-linear regression method. In case of antagonist assay, the reaction mixture contained 10 nM S1P in the presence of test antagonist at concentrations ranging from 0.08 to 5000 nM.
Background: GTPγS resists hydrolysis and so accumulates on activated G proteins.

The values below come from patent US8518932B2, “Oxime azetidine derivatives as sphingosine 1-phosphate (S1P) receptor modulators” (Allergan, Inc., priority 2010, dated 2013).

T1 sequence (P21453 whole entry): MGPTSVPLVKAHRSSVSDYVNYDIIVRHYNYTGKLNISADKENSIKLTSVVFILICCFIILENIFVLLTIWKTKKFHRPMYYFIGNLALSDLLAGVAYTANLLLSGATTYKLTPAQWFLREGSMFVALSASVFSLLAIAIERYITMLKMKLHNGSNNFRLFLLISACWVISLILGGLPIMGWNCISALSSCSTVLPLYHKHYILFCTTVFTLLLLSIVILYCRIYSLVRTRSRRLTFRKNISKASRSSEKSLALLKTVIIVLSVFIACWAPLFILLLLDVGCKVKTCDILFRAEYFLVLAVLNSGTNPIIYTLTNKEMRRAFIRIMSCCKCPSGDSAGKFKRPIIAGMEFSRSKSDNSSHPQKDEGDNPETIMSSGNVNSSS

By EC50 is commonly meant the midpoint of the concentration-response curve. On to `C/C(=N\OCc1ccc(CN2CC(C(=O)O)C2)cc1)C(Cc1ccc(C)c(C)c1)c1cccc(Cl)c1` (centres unmarked) [Compound 3, 1-{4-[({[(1E)-2-(3-chlorophenyl)-3-(3,4-dimethylphenyl)-1-methylpropylidene]amino}oxy)methyl]benzyl}azetidine-3-carboxylic acid], for which the concentration giving a half-maximal response (EC50) worked out at 0.23 µM.

For `C/C(=N\OCc1ccc(CN2CC(C(=O)O)C2)cc1)C(Cc1ccc(C)c(C)c1)c1cc(F)cc(F)c1` (centres unmarked) [Compound 4, 1-{4-[({[(1E)-2-(3,5-difluorophenyl)-3-(3,4-dimethylphenyl)-1-methylpropylidene]amino}oxy)methyl]benzyl}azetidine-3-carboxylic acid], the EC50 is 0.0175 µM.

Molecule `C/C(=N\OCC(Oc1ccc(C)c(C)c1)c1cccc(Cl)c1)c1ccc(CN2CC(C(=O)O)C2)cc1` (centres unmarked) [Compound 8, 1-(4-{(1E)-N-[2-(3-chlorophenyl)-2-(3,4-dimethylphenoxy)ethoxy]ethanimidoyl}benzyl)azetidine-3-carboxylic acid] showed a half-maximal effective concentration (EC50) of 0.163 µM.

Molecule `C/C(=N\OCC(Cc1ccc(C)c(C)c1)c1cccc(Cl)c1)c1ccc(CN2CC(C(=O)O)C2)cc1` (centres unmarked) [Compound 2, 1-(4-{(1E)-N-[2-(3-chlorophenyl)-3-(3,4-dimethylphenyl)propoxy]ethanimidoyl}benzyl)azetidine-3-carboxylic acid] gave a concentration giving a half-maximal response (EC50) of 0.00905 µM.

With `C/C(=N\OCC(Cc1ccc(C)c(C)c1)c1cccc(C)c1)c1ccc(CN2CC(C(=O)O)C2)cc1` (centres unmarked) [Compound 1, 1-(4-{(1E)-N-[2-(3-methylphenyl)-3-(3,4-dimethylphenyl)propoxy]ethanimidoyl}benzyl)azetidine-3-carboxylic acid], the EC50 stood at 0.0165 µM. Compared with the last molecule, the EC50 is about 1.8-fold higher.
